This is an account of results in patent US6720139B1, “Genes identified as required for proliferation in Escherichia coli” (priority 1999, dated 2004).

≈ marks a conversion by molar mass, not a printed value. Where two headings read alike, the source gives them in different places. Positions of bridges follow the written chain, without caps; N, C: chain ends. Non-standard residues stand in square brackets, D forms with d. Residues, ends and D or L forms follow the SMILES beside them. *: point of attachment. Ileψ(thiazoline)Cys = CC[C@H](C)[C@H](N)C1=N[C@H](C(=O)*)CS1; dOrn = NCCC[C@@H](N)C(=O)O

Series [1] deals with bacterial strain engineered for expression of an antisense against rplL and rplJ (50S ribosomal subunit proteins). The series is described as follows: microbe, parasite or virus in culture. The format is cell-based, E. coli. Here is the method:
A panel of test antibiotics known to act on different pathways is tested side by side with three to four wells being used to evaluate the effect of a test antibiotic on cell growth at each concentration. Equal volumes of test antibiotic and cells are added to the wells of a 384 well microtiter plate and mixed. Cells are prepared as described above using the media selected for assay development supplemented with the antibiotic required to maintain the antisense construct and are diluted 1:100 in identical media immediately prior to addition to the microtiter plate wells. For a control, cells are also added to several wells that contain the solvent used to dissolve the antibiotics but no antibiotic. Cell growth is monitored continuously by incubation at 37° C. in a microtiter plate reader monitoring the OD600 of the wells over an 18-hour period. […] A plot of percent inhibition against log[antibiotic concentration] allows extrapolation of an IC50 value for each antibiotic.
Two fold dilution series of the panel of test antibiotics used above are generated in each of these media. Several antibiotics are tested side by side with three to four wells being used to evaluate the effects of an antibiotic on cell growth at each concentration, in each media. Equal volumes of test antibiotic and cells are added to the wells of a 384 well microtiter plate and mixed. Cells are prepared as described above using the media selected for use in the assay supplemented with the antibiotic required to maintain the antisense construct. […] Immediately prior to addition to the microtiter plate wells, the cultures are adjusted to an appropriate OD600 (typically 0.002) by dilution into warm (37° C.) sterile media supplemented with identical concentrations of the inducer and antibiotic used to maintain the antisense construct. […] Cell growth is monitored continuously by incubation at 37° C. in a microtiter plate reader monitoring the OD600 of the wells over an 18-hour period. […]

Series [2] relates to E. coli cells expressing antisense RNA to rplL, rplJ, rplW or to comparison genes (elaD, visC, yohH, atpB/E). The series is described as follows: Antibiotic sensitivity of cells expressing antisense RNA (Example 9). The conditions noted are these: for sensitivity to erythromycin: initial experiments. The class given is cell-based. The source says: The effectiveness of the above cell based assay was validated using constructs expressing antisense RNA to E. coli genes rplL, rplJ, and rplW encoding ribosomal proteins L7/L12, L10 and L23 respectively. These proteins are part of the protein synthesis apparatus of the cell and as such are required for proliferation. These constructs were used to test the effect of antisense expression on cell sensitivity to antibiotics known to bind to the ribosome and thereby inhibit protein synthesis. Constructs expressing antisense RNA to several other genes (elaD, visC, yohH, and aptE/B), the products of which are not involved in protein synthesis were used for comparison.
First expression vectors containing antisense constructs to either rplW or to elaD were introduced into separate E. coli cell populations. Vector introduction is a technique well known to those of ordinary skill in the art. The expression vectors of this example contain IPTG inducible promoters that drive the expression of the antisense RNA in the presence of the inducer. However, those skilled in the art will appreciate that other inducible promoters may also be used. Suitable expression vectors are also well known in the art. The E. coli antisense clones encoding ribosomal proteins L7/L12, L10 and L23 were used to test the effect of antisense expression on cell sensitivity to the antibiotics known to bind to these proteins. […]
Cells were pretreated with the selected concentration of IPTG and then used to test the sensitivity of cell populations to tetracycline, erythromycin and other protein synthesis inhibitors. […] Cells were grown to log phase and then diluted into media alone or media containing IPTG at concentrations which give 20% and 50% growth inhibition as determined by IPTG dose response curves. […] The 96 well plates were incubated at 37° C. and the OD600 was read by a plate reader every 5 minutes for up to 15 hours. For each IPTG concentration and the no IPTG control, tetracycline dose response curves were determined when the control (absence of tetracycline) reached 0.1 OD600.

The subject of another series is E. coli. The series is described as follows: Inhibition of bacterial proliferation after IPTG induction of antisense clones (Example 1). The class given is cell-based, Escherichia coli. The conditions noted are these: 1 mM IPTG, liquid or solid medium. Here is the method:
To study the effects of transcriptional induction in liquid medium, growth curves were carried out by back diluting cultures 1:200 into fresh media with or without 1 mM IPTG and measuring the OD450 every 30 minutes (min). To study the effects of transcriptional induction on solid medium, 10^2, 10^3, 10^4, 10^5, 10^6, 10^7 and 10^8 fold dilutions of overnight cultures were prepared. Aliquots of from 0.5 to 3 μl of these dilutions were spotted on selective agar plates with or without 1 mM IPTG. After overnight incubation, the plates were compared to assess the sensitivity of the clones to IPTG.
Of the numerous clones tested, some clones were identified as, a containing sequence that inhibited E. coli growth after IPTG induction. Accordingly, the gene to which the inserted nucleic acid sequence corresponds, or a gene within the operon containing the inserted nucleic acid, may be required for proliferation in E. coli.

In the case of `CC[C@H](C)[C@H](N)C1=N[C@H](C(=O)N[C@@H](CC(C)C)C(=O)N[C@H](CCC(=O)O)C(=O)N[C@H](C(=O)N[C@H]2CCCCNC(=O)[C@H](CC(N)=O)NC(=O)[C@@H](CC(=O)O)NC(=O)[C@H](Cc3cnc[nH]3)NC(=O)[C@@H](Cc3ccccc3)NC(=O)[C@H]([C@@H](C)CC)NC(=O)[C@@H](CCCN)NC2=O)[C@@H](C)CC)CS1` [Bacitracin] ({Ileψ(thiazoline)Cys}-L[dE]IK[dOrn]I[dF]H[dD]N; lactam 4-C), the results for the IC50 in series [1] (read-out: IC50 (+IPTG)) and in series [1] (read-out: IC50 (−IPTG)) were 4680 µg/mL (≈ 3290 µM) and 4080 µg/mL (≈ 2870 µM), respectively.

As for `CN(C)c1ccc(O)c2c1C[C@H]1C[C@H]3[C@H](N(C)C)C(O)=C(C(N)=O)C(=O)[C@@]3(O)C(O)=C1C2=O` [Minocycline], the IC50 in series [1] (read-out: IC50 (+IPTG)) was 0.0034 µg/mL (≈ 0.00743 µM).

Consider `CCn1cc(C(=O)O)c(=O)c2ccc(C)nc21` [Nalidixic acid], for which the “sensitivity to antibiotics which do not inhibit protein synthesis” value in series [2] (clone expressing antisense to rplL and rplJ) was “does not show increased sensitivity”.

On to `CC[C@H]1OC(=O)[C@H](C)[C@@H](O[C@H]2C[C@@](C)(OC)[C@@H](O)[C@H](C)O2)[C@H](C)[C@@H](O[C@@H]2O[C@H](C)C[C@H](N(C)C)[C@H]2O)[C@](C)(O)C[C@@H](C)C(=O)[C@H](C)[C@@H](O)[C@]1(C)O` [Erythromycin], for which the sensitivity to erythromycin entry is “do not” in series [2] (clones expressing antisense to non-protein synthesis genes elaD, atpB/E and visC); “increased sensitivity” in series [2] (clones expressing antisense to protein synthesis genes (L7/L12 & L10, L7/L12 alone, L22, L18, rRNA, Elongation Factor G)).

B1: EcXA044: identified antisense clone, gene purB (nucleic acid)
DNA: TTAATTATTAAAATAGTGTAACGCGATTATGTGGTTATGGGGGTAAACATTAAATAAACCAGCGGGGAGGGGAGGTAAAGTGAAAAAATAAAAAGCGGATAATCTTAATAAGCAGGCCGGACAGCATCGCCATCCGGCACTGATACGAGGTTTATTTCAGCTCATCAACCATCG
modifications: E. Coli
notes: identified antisense clone, gene purB
For B1, the “E. coli growth after IPTG induction of antisense expression” value (from here on “E. coli growth after IPTG induction”) in the series with E. coli was “reduction in cell growth”.

B2: EcXA053: identified antisense clone, gene gor (nucleic acid, listed as Escherichia coli)
DNA 1: TGGAGAAAACGGGTGATTGATAAAGCAATCATCGTTCTAGGGGCGTTAATTGCGCTGCTGGAACTGATCCCGCTTTCTGCTTCAAGCTTCTGAACTGGATACGGAAACGTAATNAGGGCTAAAGAAGACACTACTCTTAGCCCTTTAACATTTAACGCATTGTCACGAACTCTTCTGCCGCCGTTGGGTGAATGGCGACGGGTATTGGTCGAAATCTTTTTTGGGTGGCCCCATCTTTAACGCCCACCCGCGAAACCCTGCAACATTTCGTC
DNA 2: TGGAGAAAACGGGTGATTGATAAAGCAATCATCGTTCTAGGGGCGTTAATTGCGCTGCTGGAACTGATCCGCTTTCTGCTTCAGCTTCTGAACTGATAGCGGAAACGTAATTAAGGGCTAAGAGCACACTACTCTTAGCCCTTTAACATTTAACGCATTGTCACGAACTCTTCTGCCGCCGTTGGGTGAATGGCGACGGTATTGTCGAAGTCTTTTTTGGTTGCCCCCATCTTCAGCGCCACCGCGAAGCCCTGCAACATTTCGTC
modifications: E. Coli; misc_feature (1)...(272): n = A,T,C or G
notes: identified antisense clone, gene gor
Consider B2, for which the “E. coli growth after IPTG induction” value in the series with E. coli is “reduction in cell growth”.

B3: EcXA046: identified clone corresponding to an intergenic sequence, fimE, fimA (nucleic acid)
DNA: TTTGTTGGCTTAATATTCTATTGTTATCTTTATTTATAGATGTTTATATTGCATGAGGTGGTTTTTGGAGAGAAGAATGAGGAAGATGCGTCGAGCCACAGAAACGTTAGCTTTACATATAGCGGAGGTGATGTGAATTTAATTTACAATAGAAATAATTTACATATCAAACAGTTAGATGCTTTTTGTCG
modifications: E. Coli
As to B3, the “E. coli growth after IPTG induction” value in the series on E. coli was “reduction in cell growth”.

B4: EcXA006: identified antisense clone, gene pta (nucleic acid)
DNA: GCGCATACCCTGCAGCATCGGCCCGATGGAGATCAGGTCGGCAGAACGCTGTACCGCTTTGTAGGTGGTGTTACCGGTGNTCAGATCCGGGAAGATGAACACGGTAGCGCGACCTGCAACCGGAGAGTTCGGCGCTTTGGATTNCGCAACGTCAGCCATTACCGCAGCGTCGTACTGCAGCGGACCGGCGATCATCAGGTCA
modifications: E. Coli; misc_feature (1)...(202): n = A,T,C or G
notes: identified antisense clone, gene pta
With B4, the “E. coli growth after IPTG induction” value with E. coli is on record as “reduction in cell growth”.
